# Source: a melting point compilation (Tetko et al.)
row,Structure (SMILES),melting point [°C]
1,Cc1cc(S(=O)(=O)Nc2sc3c(c2C(N)=O)CCC(C)C3)ccc1Br (centres undefined),218 to 220
2,O=C(CCl)Nc1cc(Cl)ccc1F,98 to 102
3,CCCCn1c(N)c(NCc2ccccc2)c(=O)[nH]c1=O,207 to 209
4,N#Cc1cc(C(F)(F)F)ccc1O,152 to 154
5,COc1ccccc1-c1cc(N)n(-c2ccc(C)cc2)n1,104 to 106
6,O=S(=O)(c1nnc[nH]1)N1CCNCC1,240 to 242
7,Nc1cccnc1C(=O)O,218 to 220
8,NNc1ccc(S(N)(=O)=O)cn1,190 to 192
9,Oc1cc2c(nn1)CCNC2,211 to 213
10,COc1cc(S(=O)(=O)Cl)ccc1Br,65 to 67
11,Cc1csc(=O)n1CCBr,47 to 51
12,Cc1ccc(C)c(SCC(=O)O)c1,73 to 75
13,Cc1ccc(S(=O)(=O)N2CCCC2)cc1C(=O)O,178 to 180
14,CN(C)c1ccc(-c2cncc(C(=O)O)c2)cc1,284 to 286
15,COC(=O)C(=O)CC(=O)c1ccccc1Br,61 to 63
16,CCOC(=O)Nc1cccc(O)c1,95 to 97
17,N=C(N)Nc1nc2ccccc2[nH]1,242 to 244
18,O=Cc1c[nH]nc1-c1ccc2c(c1)OCO2,188 to 190
19,CCC(=O)Nc1cccc(N)c1C,116 to 118
20,COc1cc2ncn(CCC(=O)O)c(=O)c2cc1OC,95 to 97
21,Cc1nsc2ncc(C(=O)O)cc12,179 to 181
22,CCC(c1ccccc1)c1nnc(N)s1 (centres undefined),184 to 186
23,Cc1cc(C=O)c(C)n1-c1ccnn1C(C)C,77 to 79
24,CC(=O)NCC1CCNCC1,97 to 99

row,Structure (SMILES),melting point [°C]
1,O=C(O)CNc1cccc(Cl)c1,174 to 176
2,CC1=CC(=O)N(C2CCCCC2)C1=O,99 to 101
3,Cc1ccc(/C=C/C(=O)O)cc1Cl,194 to 196
4,Cc1ccc(-n2c(S)nnc2-c2ccc(Cl)cc2)cc1,141 to 143
5,O=S(=O)(Cl)c1cc2ccc(Cl)nc2cc1F,128 to 130
6,CC(=O)c1ccc(-c2ccc(Cl)cc2)s1,120 to 122
7,CCOc1c(F)cccc1C(=O)O,43 to 45
8,O=C(O)Cc1cc2c(ccc3ccccc32)o1,166 to 168
9,O=S(=O)(F)c1ccc2cn[nH]c2c1,219 to 221
10,Nc1ccc2c(c1)NC(=O)CC2,210 to 212
11,COC(=O)NCc1ccc(N)cc1,95 to 97
12,Nc1cccc(S(=O)(=O)Nc2nccs2)c1,170 to 172
13,O=Cc1ccc(OC(F)(F)C(=O)O)cc1,146 to 148
14,NC(=O)Nc1ccccc1Oc1ccccc1,182 to 184
15,Cc1c(C(=O)O)sc2ncn(C)c(=O)c12,215 to 217
16,Cc1ncc(C=CC(=O)O)s1,194 to 196
17,NC(=O)c1ccccc1Oc1cccc(N)c1,129 to 131
18,Cc1ccc(N(CCC#N)C(=O)CCl)cc1,56 to 58
19,O=c1c2c(-c3ccco3)csc2nc(S)n1-c1ccccc1,242 to 244
20,O=C(O)Cc1csc(NC(=O)c2cccc(O)c2)n1,196 to 198
21,NC(=O)c1cccnc1S,297 to 299
22,COc1ccc([N+](=O)[O-])cc1CN=[N+]=[N-],33 to 35
23,COc1ccc(S(N)(=O)=O)cc1C(=O)O,224 to 226
24,CC(C)(CO)NCCO,73 to 75

row,Structure (SMILES),melting point [°C]
1,OC(CC1CCCCCN1)c1ccccc1 (centres undefined),36 to 38
2,O=c1[nH]c2cc(F)ccc2c(=O)o1,240 to 242
3,O=C1CCCc2cc(O)ccc2N1,219 to 221
4,CCOC(=O)c1cc(C2CC2)[nH]n1,98 to 100
5,Nc1cc(C2CCC2)no1,77 to 79
6,O=C(O)/C=C/c1ccc(Br)c(Cl)c1,175 to 186
7,COc1ccc2cc(CO)ccc2c1,122 to 124
8,CC(C)C(NC(=O)Cc1ccccc1)C(=O)O (centres undefined),110 to 112
9,Cc1c[nH]nc1[N+](=O)[O-],183 to 185
10,CCC(=O)Nc1ccc(C(=O)CCl)cc1,104 to 106
11,CCOC(=O)C(NC(C)=O)C(C)=O (centres undefined),44 to 46
12,O=C(O)Cc1coc(-c2ccccc2)n1,148 to 150
13,Cc1cc(NC(=O)OC(C)(C)C)sc1C,102 to 104
14,Cc1ccc(-n2[nH]c(C(=O)O)cc2=O)cc1,259 to 261
15,COc1ccc2nc(C)c(C(=O)O)cc2c1,221 to 223
16,Cc1ccc(S(N)(=O)=O)cc1N(C)C,126 to 128
17,Nc1cc(Cl)ccc1C(=O)N1CCCC1,118 to 120
18,NNC(=O)c1ccc(CSc2nc3ccccc3[nH]2)cc1,64 to 66
19,O=C(O)c1cc(N2CCCC2=O)cc(C(F)(F)F)c1,188 to 190
20,C=CCNc1nc2c(s1)CCCC2,77 to 79
21,Cc1ccc(C)n1-c1ccc(C(=O)O)cc1,213 to 215
22,Cc1nc(S)c(C#N)cc1C(=O)Nc1ccccc1,201 to 203
23,O=C(O)c1cccc(F)c1Sc1ccccc1,161 to 163
24,Sc1nncn1C1CC1,189 to 191

row,Structure (SMILES),melting point [°C]
1,CCCOc1ccc2[nH]cc(CO)c2c1,89 to 91
2,O=S1(=O)CCCN1c1cccc(Br)c1,74 to 76
3,Cc1ccc(-n2c(C)ccc2C)cc1N,83 to 85
4,NC(=O)c1ccc(CO)c(F)c1,103 to 105
5,Cc1ccc(C(=O)O)cc1NC(=O)NC(C)(C)C,336 to 338
6,Cc1nc(-c2ncccn2)sc1C(=O)O,224 to 226
7,CCC(=O)Nc1ccc(Cl)c(N)c1,105 to 107
8,CCn1nnnc1-c1cccc(N)c1,118 to 120
9,N#CCc1ccc(OCc2ccccc2N)cc1,108 to 110
10,CCCn1ncc(C(=O)O)c1C1CC1,119 to 121
11,O=S(=O)(c1ccc2c(c1)CCCN2)N1CCCCC1,121 to 123
12,O=C(O)c1ccc(NS(=O)(=O)C=Cc2ccccc2)cc1,254 to 256
13,N#Cc1c(N2CCCC2)n[nH]c1N,208 to 210
14,CN(C)c1ccc(C#N)c(N)c1,109 to 111
15,Nc1ccc(-n2cccn2)nc1,97 to 99
16,Cc1nn(Cc2ccccc2)c(Cl)c1C(=O)O,180 to 182
17,NS(=O)(=O)c1ccc(C(=O)O)cc1Br,201 to 203
18,NCc1cccc(S(=O)(=O)NCc2cccc(F)c2)c1,101 to 103
19,N#Cc1cc(Br)ccc1N=C=O,97 to 99
20,CC(C)Cc1nc(C(=O)O)cs1,104 to 106
21,COc1ccccc1C1C(C(=O)O)CCC(=O)N1c1ccc(C)cc1 (centres undefined),205 to 208
22,Clc1ccc(Br)c2ccccc12,62 to 64
23,COc1ccc2c(c1)CC(=O)NCC2,151 to 153
24,CNc1ccc(-c2ccccc2)nn1,157 to 159

row,Structure (SMILES),melting point [°C]
1,Cc1cc(C)c(S(=O)(=O)Nc2cccc(C(F)(F)F)c2)c(C)c1,88 to 90
2,O=C(O)c1cc2c(F)cccc2[nH]1,209 to 211
3,CCn1c(S)nnc1-c1cccs1,103 to 105
4,O=S(=O)(Cl)c1cccc2ncccc12,121 to 123
5,Nc1ccc(Oc2ccc(F)cc2)nc1,47 to 49
6,O=C(Nc1cccc(Cl)c1)c1ccc(Cl)nc1,177 to 179
7,Sc1ncc(-c2ccc(Br)cc2)[nH]1,210 to 212
8,Cc1c(N)cc(C(N)=O)cc1F,188 to 190
9,OCC(c1ccc(Cl)cc1)N1CCNCC1 (centres undefined),116 to 118
10,O=C(O)CCC(=O)c1ccc(Cl)s1,122 to 124
11,O=S(=O)(c1ccc(Cl)nc1)N1CCC(Cc2ccccc2)CC1,153 to 157
12,CC(C)Oc1ccc([N+](=O)[O-])c(C(=O)O)c1,135 to 137
13,O=C(NCCO)c1ccncc1,136 to 138
14,Fc1cc(CBr)ccc1Br,38 to 40
15,CCOc1cc(-c2ccccc2)sc1C(=O)O,174 to 176
16,O=C(O)c1sccc1S(=O)(=O)C(F)F,121 to 123
17,Cc1nnc(CO)n1C1CC1,114 to 116
18,CCCCS(=O)(=O)Nc1ccc(F)c(N)c1,71 to 73
19,Cc1ccccc1C(=O)NC1CCN(C(=O)CCl)CC1,126 to 128
20,COc1ccccc1NC1=NCC(C)S1 (centres undefined),92 to 97
21,Nc1cc(Br)ccc1S(N)(=O)=O,142 to 144
22,COC(=O)c1ccc(C=CC(=O)O)cc1,236 to 238
23,Cc1ccc(C(N)=O)c(O)c1,181 to 183
24,CC(C(=O)Nc1cccc(N)c1)n1cccn1 (centres undefined),135 to 137

row,Structure (SMILES),melting point [°C]
1,COc1ccc(/C=C/c2cc(C(=O)O)c3cc(Br)ccc3n2)cc1,295 to 297
2,Nc1nnn(Cc2ccccc2)n1,183 to 185
3,CCN1C(=O)C(=O)c2ccc(Br)cc21,118 to 120
4,Cc1cc(C(=O)O)c(C)nn1,132 to 134
5,Cc1cc(Cl)c(C(=O)O)cc1C,180 to 182
6,Cc1cc(O)nc(C2CC2)n1,190 to 192
7,COC(=O)N(C)c1ccccc1C(=O)O,138 to 140
8,O=C1CCC(O)(c2cccc(F)c2)CC1,111 to 113
9,CN(C)CCN1C(=O)C=CC1=O,44 to 46
10,N#Cc1cc(Cl)ccc1OC1CCOC1 (centres undefined),128 to 130
11,O=C(O)C1CCN(S(=O)(=O)c2ccccc2)CC1,156 to 158
12,Cc1cc(N)n(C2CCS(=O)(=O)C2)n1 (centres undefined),215 to 217
13,CCCNc1ccc(Cl)cc1N,62 to 64
14,CCN(C(C)=O)c1nc(C=O)cs1,121 to 123
15,Nc1ccc(F)c(NC(=O)Cc2ccccc2)c1,180 to 182
16,O=c1c(Cl)c(Cl)cnn1-c1ccc(F)cc1F,173 to 175
17,Nc1ccc(Oc2ccc(Cl)nn2)cc1,105 to 107
18,COc1ccc(NS(=O)(=O)c2ccc(N3CCCC3)c(N)c2)cc1,40 to 42
19,CCOC(=O)c1sc2nc(CN3CCCCC3)nc(Cl)c2c1C,105 to 107
20,Cc1ccoc1C(=O)CC#N,93 to 95
21,OCc1ccc(F)cc1Br,69 to 71
22,Clc1nc(-c2cccnc2)nc2scc(-c3ccccc3)c12,155 to 157
23,CCCc1noc2nc(C3CC3)cc(C(=O)O)c12,142 to 144
24,Cc1sc(N)c(C(=O)O)c1C,120 to 122
